Reference: PubChem BioAssay (NCI)
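These data come from cells grown in 96-well plates and exposed to compound for 48 hours at five concentrations. Abbreviation: GI50, concentration required for 50% inhibition of growth. At the TGI there is no net growth.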

Legend:
Experiment in all cases: inhibition of tumour cell growth, NCI panel, 48 h
[1] = test system: IGROV1 ovarian
[2] = test system: LOX IMVI melanoma
[3] = test system: SW-620 colon
[4] = test system: NCI-H460 lung
[5] = test system: K-562 leukemia
[6] = test system: HCT-15 colon
[7] = test system: ACHN renal
[8] = test system: MALME-3M melanoma
[9] = test system: M14 melanoma
[10] = test system: SK-MEL-2 melanoma
[11] = test system: SF-539 CNS
[12] = test system: U251 CNS
[13] = test system: HOP-62 NSCLC
[14] = test system: BT-549 breast
[15] = test system: HOP-92 NSCLC
[16] = test system: OVCAR-5 ovarian
[17] = test system: SNB-75 CNS
[18] = test system: HCC-2998 colon
[19] = test system: NCI/ADR-RES ovarian
[20] = test system: T-47D breast
[21] = test system: HL-60(TB) leukemia
[22] = test system: 786-0 renal
[23] = test system: SNB-19 CNS
[24] = test system: SK-MEL-5 melanoma
[25] = test system: UACC-257 melanoma
[26] = test system: HCT-116 colon
[27] = test system: OVCAR-4 ovarian
[28] = test system: RXF 393 renal
[29] = test system: PC-3 prostate
[30] = test system: TK-10 renal
[31] = test system: EKVX NSCLC
[32] = test system: NCI-H226 lung
[33] = test system: MDA-MB-231 breast
[34] = test system: MDA-MB-435
[35] = test system: COLO 205 colon
[36] = test system: CAKI-1 renal
[37] = test system: A549 NSCLC
[38] = test system: NCI-H23 lung
[39] = test system: SK-OV-3 ovarian
[40] = test system: MOLT-4 leukemia
[41] = test system: OVCAR-3 ovarian
[42] = test system: OVCAR-8 ovarian
[43] = test system: SN12C renal
[44] = test system: NCI-H522 lung
[45] = test system: MCF7 breast
[46] = test system: CCRF-CEM leukemia
[47] = test system: A498 renal
[48] = test system: SF-295 CNS
[49] = test system: SK-MEL-28 melanoma
[50] = test system: DU-145 prostate
[51] = test system: SF-268 CNS
[52] = test system: KM12 colon
[53] = test system: UACC-62 melanoma
[54] = test system: HT29 colon
[55] = test system: UO-31 renal
[56] = test system: RPMI-8226 leukemia

COc1cc(C2=C(C#Cc3ccccc3)COC2=O)cc(OC)c1OC
TGI [1]: > 100 µM | GI50 [2]: 0.738 µM | TGI [2]: 3.92 µM | GI50 [3]: 0.755 µM | GI50 [4]: 3.3 µM | TGI [4]: > 100 µM | GI50 [5]: 0.629 µM | TGI [5]: > 100 µM | GI50 [6]: 1.3 µM | TGI [6]: 9.39 µM | GI50 [7]: 1.8 µM | TGI [7]: 8.16 µM | GI50 [8]: 3.72 µM | TGI [8]: 33.1 µM | GI50 [9]: 1.77 µM | TGI [9]: 11.7 µM | GI50 [10]: 5.35 µM | TGI [10]: > 90.9 µM | GI50 [11]: 0.646 µM | TGI [11]: 4.87 µM | GI50 [12]: 1.91 µM | TGI [12]: 5.61 µM | GI50 [13]: 0.706 µM | TGI [13]: 2.61 µM | GI50 [14]: 3.26 µM | TGI [14]: 63.1 µM | GI50 [15]: 2.77 µM | TGI [15]: 10.6 µM | GI50 [16]: 7.89 µM | TGI [16]: > 57.9 µM | GI50 [17]: 4.98 µM | TGI [17]: > 100 µM | GI50 [18]: 12.4 µM | TGI [18]: 25.8 µM | GI50 [19]: 5.43 µM | TGI [19]: 22.2 µM | GI50 [20]: 13.3 µM | TGI [20]: > 100 µM | GI50 [21]: 0.246 µM | TGI [21]: 3.36 µM | GI50 [22]: < 0.0224 µM | GI50 [23]: 7.27 µM | TGI [23]: > 76 µM | GI50 [24]: 2.56 µM | TGI [24]: 20.1 µM | GI50 [25]: 6.17 µM | TGI [25]: > 70.4 µM | GI50 [26]: 0.69 µM | TGI [26]: 4.01 µM | GI50 [27]: 34.2 µM | TGI [27]: > 100 µM | GI50 [28]: 1.35 µM | TGI [28]: > 100 µM | GI50 [29]: 1.05 µM | TGI [29]: 20.3 µM | GI50 [30]: 1.9 µM | TGI [30]: 5.97 µM | GI50 [31]: 18.2 µM | TGI [31]: 38.1 µM | GI50 [32]: 1.73 µM | TGI [32]: 4.6 µM | GI50 [33]: 0.492 µM | TGI [33]: 2.95 µM | GI50 [34]: 0.302 µM | GI50 [35]: 4.89 µM | TGI [35]: > 94.6 µM | GI50 [36]: 20.3 µM | TGI [36]: > 100 µM | GI50 [37]: 14.2 µM | TGI [37]: > 100 µM | GI50 [38]: 5.51 µM | TGI [38]: 12.8 µM | GI50 [39]: 20.4 µM | TGI [39]: > 100 µM | GI50 [40]: 30.1 µM | TGI [40]: > 100 µM | GI50 [41]: 2.1 µM | TGI [41]: 16.8 µM | GI50 [42]: 5.37 µM | TGI [42]: > 45.4 µM | GI50 [43]: 0.261 µM | TGI [43]: 1.38 µM | GI50 [44]: 3.01 µM | TGI [44]: > 33.7 µM | GI50 [45]: 0.193 µM | TGI [45]: > 100 µM | GI50 [46]: 3.39 µM | TGI [46]: 59.3 µM | GI50 [47]: 41.1 µM | TGI [47]: > 100 µM | GI50 [48]: 0.687 µM | TGI [49]: > 100 µM | GI50 [50]: 0.293 µM | TGI [50]: 18 µM | GI50 [51]: 4.59 µM | TGI [51]: > 100 µM | GI50 [52]: 1.87 µM | TGI [52]: 10.5 µM | GI50 [53]: 0.288 µM | TGI [53]: 4.12 µM | GI50 [54]: 3.02 µM | TGI [54]: > 100 µM | GI50 [55]: 3.6 µM | TGI [55]: > 32.7 µM | GI50 [56]: 1.34 µM | TGI [56]: 4.05 µM
